One compound from EP0259183A2, “Process for controlling the accuracy and precision of sensitivity assays” (LIFETRAC, priority 1986, dated 1988) can be followed below.

In this assay the test system is primary human tumor cells. The assay can be described thus: Drug sensitivity assay of primary tumor cell cultures on cell-adhesive matrix, growth quantitated by optical density of crystal violet stained wells, IC90 from survival curves. It is filed as cell-based. To be noted: median of IC90 values over a large group of individuals' tumor cells (Figure 5); 5 days drug exposure, then 7 days further culture; 2,000 cells per well. How it is done: Biopsies of tumors were obtained from cancer patients during routine diagnostic or therapeutic procedures. The biopsies were transported to the laboratory.
The solid tumor biopsies were minced with scapels to 1 mm pieces. Fluid specimens were anticoagulated with 10 Units/ml of Heparin and the cells recovered by contrifugation. The tissue from either the solid or fluid specimens were disaggregated by overnight incubation with constant stirring with the enzyme cocktail consisting of collagenase (0.075%) and DNase (0.005%) in culture medium supplemented with 10% fetal bovine serum. […]
The tumor cell count is performed using a hemocytometer and a microscope fitted with a phase gradient inaging system so that living cells can be visualized. The number of viable tumor cells are counted at 400X magnification according to the following criteria: 1. unstained by the trypan blue dye; 2. large size (>15 microns); 3. large nucleous to cytoplasmic ratio; 4. prominant nucleoli; and 5. nil to moderate granularity. The number of cells in 1/9th the marked area of the hemocytometer meeting the above criteria are counted.
The cell concentration is calculated and an aliquot containing the number of cells required for the assay (200,000 cells for a 9 drug assay using alphaMEM culture medium) is withdrawn. […]

Turning to `N.N.[Cl][Pt][Cl]` [cisplatin], the “IC90 (concentration of drug that killed or inhibited 90% of the growing population of cells), median of the distribution of responses” value worked out at 0.3 µg/mL.
